We go through 11 compounds from patent publication US11739098B2 (BRISTOL-MYERS SQUIBB COMPANY, priority 2017, dated 2023).

Holding throughout (format): cell-based
In one experiment the target is T1, human TLR8 (Homo sapiens, UniProt Q9NR97).
T1 construct: host or cells: HEK-Blue cells (HEK293-derived reporter line)
T1 sequence (Q9NR97 27-1041): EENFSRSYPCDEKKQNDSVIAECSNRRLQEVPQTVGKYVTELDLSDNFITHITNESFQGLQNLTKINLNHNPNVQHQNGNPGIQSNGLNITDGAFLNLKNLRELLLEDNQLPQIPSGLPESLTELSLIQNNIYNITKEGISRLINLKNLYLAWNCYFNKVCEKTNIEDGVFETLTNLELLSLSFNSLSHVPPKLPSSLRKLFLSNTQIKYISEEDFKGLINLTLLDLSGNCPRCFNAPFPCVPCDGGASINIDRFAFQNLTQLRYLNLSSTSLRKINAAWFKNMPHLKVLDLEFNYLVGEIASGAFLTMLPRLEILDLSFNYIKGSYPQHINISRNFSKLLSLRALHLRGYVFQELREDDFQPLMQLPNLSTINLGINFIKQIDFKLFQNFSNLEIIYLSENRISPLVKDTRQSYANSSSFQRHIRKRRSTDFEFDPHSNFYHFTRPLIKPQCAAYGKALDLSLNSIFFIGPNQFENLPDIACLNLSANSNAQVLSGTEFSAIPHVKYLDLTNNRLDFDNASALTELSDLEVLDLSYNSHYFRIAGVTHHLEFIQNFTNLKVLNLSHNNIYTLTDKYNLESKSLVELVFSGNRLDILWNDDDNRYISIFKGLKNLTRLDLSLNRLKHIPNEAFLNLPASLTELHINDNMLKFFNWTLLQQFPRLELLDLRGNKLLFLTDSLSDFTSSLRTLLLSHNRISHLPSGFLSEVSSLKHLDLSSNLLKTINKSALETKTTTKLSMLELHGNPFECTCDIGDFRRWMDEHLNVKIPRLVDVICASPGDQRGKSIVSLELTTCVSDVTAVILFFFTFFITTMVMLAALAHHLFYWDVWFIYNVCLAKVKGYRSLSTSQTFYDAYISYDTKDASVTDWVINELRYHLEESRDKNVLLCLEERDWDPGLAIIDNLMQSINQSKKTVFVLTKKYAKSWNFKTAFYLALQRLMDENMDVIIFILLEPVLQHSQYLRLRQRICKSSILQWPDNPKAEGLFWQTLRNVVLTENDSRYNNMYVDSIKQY
Description: TLR8 inhibition reporter assay (HEK-Blue cells, SEAP reporter, R848 stimulation). The following applies: HEK-Blue cells overexpressing human TLR8, SEAP reporter, R848 15.9 μM. The method, boiled down:
(§1)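 After 22 h at 37 °C, SEAP secretion was measured from human TLR7-, TLR8- or TLR9-expressing HEK-Blue reporter cells given compound (0.05 nM–50 μM) 30 min before agonist: 7.5 μM gardiquimod, 15.9 μM R848 or 5 nM ODN2006 respectively. Percent inhibition referenced to agonist-plus-DMSO and known-inhibitor wells.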
For orientation: A reporter such as luciferase makes a cellular process visible.

The target of another experiment is T2, human TLR9 (Homo sapiens, UniProt Q9NR96).
T2 construct: host or cells: HEK-Blue cells (HEK293-derived reporter line)
T2 sequence (Q9NR96 26-1032): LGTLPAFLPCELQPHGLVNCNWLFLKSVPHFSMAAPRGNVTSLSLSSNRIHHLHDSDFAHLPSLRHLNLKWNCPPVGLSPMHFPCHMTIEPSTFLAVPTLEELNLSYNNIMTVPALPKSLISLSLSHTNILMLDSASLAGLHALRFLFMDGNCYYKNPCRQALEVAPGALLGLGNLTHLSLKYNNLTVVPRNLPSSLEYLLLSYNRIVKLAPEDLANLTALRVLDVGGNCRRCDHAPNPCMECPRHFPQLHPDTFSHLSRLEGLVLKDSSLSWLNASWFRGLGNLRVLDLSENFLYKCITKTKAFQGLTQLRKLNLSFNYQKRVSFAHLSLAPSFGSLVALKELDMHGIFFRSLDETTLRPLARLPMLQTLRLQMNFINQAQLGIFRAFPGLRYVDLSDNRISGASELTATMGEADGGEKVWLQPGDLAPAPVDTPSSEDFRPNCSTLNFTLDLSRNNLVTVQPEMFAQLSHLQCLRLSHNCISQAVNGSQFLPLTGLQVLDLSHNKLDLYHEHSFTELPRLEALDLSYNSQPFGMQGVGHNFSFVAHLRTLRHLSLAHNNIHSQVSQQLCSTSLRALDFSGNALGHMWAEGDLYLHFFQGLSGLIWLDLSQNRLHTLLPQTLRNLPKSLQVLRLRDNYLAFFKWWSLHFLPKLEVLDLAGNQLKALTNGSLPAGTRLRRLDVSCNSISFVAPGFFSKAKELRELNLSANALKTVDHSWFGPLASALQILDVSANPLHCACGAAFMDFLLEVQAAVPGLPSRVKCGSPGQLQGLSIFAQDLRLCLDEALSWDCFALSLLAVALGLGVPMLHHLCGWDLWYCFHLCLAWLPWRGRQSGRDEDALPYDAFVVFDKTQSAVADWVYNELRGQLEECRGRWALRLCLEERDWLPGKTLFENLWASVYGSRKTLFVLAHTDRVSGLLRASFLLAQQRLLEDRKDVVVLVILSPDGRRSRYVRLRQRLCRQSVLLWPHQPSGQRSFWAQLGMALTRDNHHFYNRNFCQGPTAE
Description: TLR9 inhibition reporter assay (HEK-Blue cells, SEAP reporter, ODN2006 stimulation). The following applies: HEK-Blue cells overexpressing human TLR9, SEAP reporter, ODN2006 5 nM. The method, boiled down:
as §1

The next experiment deals with T3, human TLR7 (Homo sapiens, UniProt Q9NYK1).
T3 construct: host or cells: HEK-Blue cells (HEK293-derived reporter line)
T3 sequence (Q9NYK1 27-1049): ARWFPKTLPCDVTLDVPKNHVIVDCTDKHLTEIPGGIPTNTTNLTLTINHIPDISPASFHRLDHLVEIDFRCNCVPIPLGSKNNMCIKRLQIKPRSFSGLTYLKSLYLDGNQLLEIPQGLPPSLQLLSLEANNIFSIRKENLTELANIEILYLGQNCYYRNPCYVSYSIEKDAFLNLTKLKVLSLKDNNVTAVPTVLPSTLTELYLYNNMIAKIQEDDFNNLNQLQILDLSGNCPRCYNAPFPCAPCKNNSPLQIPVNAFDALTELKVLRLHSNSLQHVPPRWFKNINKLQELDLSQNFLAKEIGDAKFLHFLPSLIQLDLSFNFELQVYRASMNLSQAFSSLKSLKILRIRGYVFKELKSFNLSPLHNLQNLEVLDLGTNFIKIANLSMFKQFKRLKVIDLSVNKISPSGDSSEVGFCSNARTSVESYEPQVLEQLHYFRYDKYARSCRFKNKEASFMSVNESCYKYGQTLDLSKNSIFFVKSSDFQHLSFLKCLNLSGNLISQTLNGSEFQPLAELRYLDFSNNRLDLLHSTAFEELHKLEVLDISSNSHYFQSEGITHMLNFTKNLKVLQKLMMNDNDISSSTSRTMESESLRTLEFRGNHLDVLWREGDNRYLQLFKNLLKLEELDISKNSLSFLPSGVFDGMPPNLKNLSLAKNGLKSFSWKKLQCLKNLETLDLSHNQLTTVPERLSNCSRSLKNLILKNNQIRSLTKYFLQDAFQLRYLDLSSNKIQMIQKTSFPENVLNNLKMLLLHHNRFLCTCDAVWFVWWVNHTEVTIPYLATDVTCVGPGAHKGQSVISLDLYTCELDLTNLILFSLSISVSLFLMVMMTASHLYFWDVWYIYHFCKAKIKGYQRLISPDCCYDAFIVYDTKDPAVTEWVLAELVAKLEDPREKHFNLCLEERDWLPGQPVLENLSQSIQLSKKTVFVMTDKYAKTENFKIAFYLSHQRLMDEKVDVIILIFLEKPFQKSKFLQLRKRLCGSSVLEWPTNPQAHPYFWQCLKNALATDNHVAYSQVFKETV
Description: TLR7 inhibition reporter assay (HEK-Blue cells, SEAP reporter, gardiquimod stimulation). The settings on record: HEK-Blue cells overexpressing human TLR7, SEAP reporter, gardiquimod 7.5 μM. The method, boiled down: as §1

SMILES strings stand for the structures. Structures can show the parent of a compound that is named as a salt.

As usually defined, the IC50 is the concentration needed to halve the response being measured. A high value points to lower potency.

In the case of `CCc1c(-c2ccnc3[nH]ncc23)[nH]c2ccc(C3CCN(C(=O)C4CCN(C)CC4)CC3)cc12` [Example 648, (4-(3-ethyl-2-(1H-pyrazolo[3,4-b]pyridin-4-yl)-1H-indol-5-yl)piperidin-1-yl)(1-methylpiperidin-4-yl)methanone], the results for the IC50 at human TLR8, on human TLR9 and against human TLR7 were less than 100 nM, 1000 to 50000 nM and less than 100 nM, respectively.
For the compound `CC(C)c1c(-c2ccnc3[nH]ncc23)[nH]c2ccc(C3CCN(C(=O)C4CCNCC4)CC3)cc12` [Example 649, (4-(3-isopropyl-2-(1H-pyrazolo[3,4-b]pyridin-4-yl)-1H-indol-5-yl)piperidin-1-yl)(piperidin-4-yl)methanone], the figures for the half-inhibitory concentration (IC50) against human TLR8, on human TLR9 and against human TLR7 were 100 to 1000 nM, 1000 to 50000 nM and 100 to 1000 nM, respectively.
For the compound `CNCCN1CCC(c2ccc3[nH]c(-c4ccnc5[nH]ncc45)c(C(C)C)c3c2)CC1` [Example 650, 2-(4-(3-isopropyl-2-(1H-pyrazolo[3,4-b]pyridin-4-yl)-1H-indol-5-yl)piperidin-1-yl)-N-methylethanamine dihydrochloride], the IC50 was less than 100 nM against human TLR8, 100 to 1000 nM at human TLR9 and less than 100 nM against human TLR7.
Take `CNCCN1CCC(c2ccc3[nH]c(-c4ccc5ncnn5n4)c(C)c3c2)CC1` [Example 651, 2-(4-(2-([1,2,4]triazolo[1,5-b]pyridazin-6-yl)-3-methyl-1H-indol-5-yl)piperidin-1-yl)-N-methylethan-1-amine]: the half-inhibitory concentration (IC50) on human TLR8, against human TLR9 and at human TLR7 was less than 100 nM each time.
For the compound `COc1cc(-c2[nH]c3ccc(C4CCN(CCNS(C)(=O)=O)CC4)cc3c2C(C)C)nn2ncnc12` [Example 652, N-(2-(4-(3-isopropyl-2-(8-methoxy-[1,2,4]triazolo[1,5-b]pyridazin-6-yl)-1H-indol-5-yl)piperidin-1-yl)ethyl)methanesulfonamide], the IC50 is less than 100 nM on human TLR8, 1000 to 50000 nM against human TLR9 and less than 100 nM against human TLR7.
As for `CC(C)c1c(-c2ccnc3[nH]ncc23)[nH]c2ccc(C3CCN(C4CCCNC4)CC3)cc12` (stereo not drawn) [Example 653, 4-(5-([1,3′-bipiperidin]-4-yl)-3-isopropyl-1H-indol-2-yl)-1H-pyrazolo[3,4-b]pyridine], the half-maximal inhibitory concentration (IC50) on human TLR8 is less than 100 nM; against human TLR9, 100 to 1000 nM; against human TLR7 it was less than 100 nM.
Consider `CCc1c(-c2ccnc3[nH]ncc23)[nH]c2ccc(C3CCN(CCNC)CC3)cc12` [Example 654, 2-(4-(3-ethyl-2-(1H-pyrazolo[3,4-b]pyridin-4-yl)-1H-indol-5-yl)piperidin-1-yl)-N-methylethan-1-amine], for which the IC50 on human TLR8 was less than 100 nM; at human TLR9, 100 to 1000 nM; at human TLR7 it was less than 100 nM.
As for `CC(C)c1c(-c2ccnc3[nH]ncc23)[nH]c2ccc(C3CCN(CCN)CC3)cc12` [Example 655, 2-(4-(3-isopropyl-2-(1H-pyrazolo[3,4-b]pyridin-4-yl)-1H-indol-5-yl)piperidin-1-yl)ethan-1-amine], the results for the IC50 against human TLR8, at human TLR9 and on human TLR7 were less than 100 nM, 100 to 1000 nM and less than 100 nM, respectively.
As to `CCc1c(-c2ccnc3[nH]ncc23)[nH]c2ccc(C3CCN(CCN)CC3)cc12` [Example 656, 2-(4-(3-ethyl-2-(1H-pyrazolo[3,4-b]pyridin-4-yl)-1H-indol-5-yl)piperidin-1-yl)ethan-1-amine], the IC50 is less than 100 nM on human TLR8, 100 to 1000 nM at human TLR9 and less than 100 nM at human TLR7.
For the compound `CCc1c(-c2ccnc3[nH]ncc23)[nH]c2ccc(C3CCN(CC4(N)CC4)CC3)cc12` [Example 657, 1-((4-(3-ethyl-2-(1H-pyrazolo[3,4-b]pyridin-4-yl)-1H-indol-5-yl)piperidin-1-yl)methyl)cyclopropan-1-amine], the concentration for half-maximal inhibition (IC50) is less than 100 nM at human TLR8, 100 to 1000 nM against human TLR9 and 100 to 1000 nM at human TLR7.
On to `CNCCN1CCC(c2ccc3[nH]c(-c4ccc5nccnc5c4)c(C)c3c2)CC1` [Example 658], for which the half-inhibitory concentration (IC50) at human TLR8 lay in the range of 1000 to 50000 nM; against human TLR9, 100 to 1000 nM; at human TLR7, 1000 to 50000 nM.
